Assay results as given in EP4790049A1, “BIPHENYL TETRAHYDROPYRROLE COMPOUND, PREPARATION METHOD THEREFOR AND USE THEREOF” (Hainan Yinrui Bio-Pharm Co., Ltd., priority 2023, dated 2025).
Counter-ions that a name gives are not always drawn.

What was measured:
Human recombinant MAO-B = target: T1, Human recombinant MAO-B (Homo sapiens, UniProt P27338); assay: Human recombinant MAO-B inhibitory activity assay (Promega MAO-Glo); format: biochemical; settings: human recombinant enzyme expressed in Sf 9 cells; substrate benzylamine 40 µM; 15 min pre-incubation, 60 min reaction, room temperature; 10 concentrations, duplicate wells
T1 construct: Full-length human recombinant MAO-A and MAO-B proteins were both expressed in Baculovirus infected Sf 9 cells; FLAG (N); host or cells: Baculovirus-infected Sf9 insect cells
T1 sequence (P27338 1-520): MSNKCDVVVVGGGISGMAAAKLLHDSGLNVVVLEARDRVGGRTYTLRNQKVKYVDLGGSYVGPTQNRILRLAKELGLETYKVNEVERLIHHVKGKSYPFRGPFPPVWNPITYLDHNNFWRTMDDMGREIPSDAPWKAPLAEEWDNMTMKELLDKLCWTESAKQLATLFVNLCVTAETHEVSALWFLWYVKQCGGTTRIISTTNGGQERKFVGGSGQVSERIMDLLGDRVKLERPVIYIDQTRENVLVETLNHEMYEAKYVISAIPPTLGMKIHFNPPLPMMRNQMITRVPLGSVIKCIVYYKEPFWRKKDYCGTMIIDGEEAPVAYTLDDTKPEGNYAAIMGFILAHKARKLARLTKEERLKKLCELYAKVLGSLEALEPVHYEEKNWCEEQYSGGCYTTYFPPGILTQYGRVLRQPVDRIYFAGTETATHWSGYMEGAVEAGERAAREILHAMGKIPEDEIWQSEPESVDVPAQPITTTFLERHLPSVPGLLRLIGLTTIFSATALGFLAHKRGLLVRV
Description: (§1) Full-length human recombinant MAO-A and MAO-B proteins were both expressed in Baculovirus infected Sf 9 cells, containing an N-terminal FLAG tag, with a molecular weight of 59.8 kDa. […] A 40 µM substrate was incubated with the MAO protein at room temperature for 1 hour. The product generated by the oxidative deamination reaction between the MAO and the substrate was incubated with a fluorescent luminescent agent for 0.5 hours, and then the activity of the MAO was detected using the Promega MAO-Glo TM detection method.
(§2) Human recombinant monoamine oxidase A/B expressed in Sf 9 cells was used. During the experiment, the recombinant monoamine oxidase A/B was first dissolved in a HEPES buffer (0.8% NaCl, 0.037% KCl, 0.0135% Na2HPO4·2H2O, 0.1% Glucan, 0.5% HEPES, pH 7.0). 10 µL of the monoamine oxidase A/B solution was added to a 384-well plate, followed by the addition of the test compound (final DMSO concentration of 1%) in each well for 10 concentration gradients. […] The plate was incubated at room temperature for 15 minutes. 10 µL of a substrate solution (40 µM, with tyramine and benzylamine as substrates for MAO-A and MAO-B, respectively) was added to each well, followed by incubation at room temperature for 60 minutes. Subsequently, 20 µL of luciferin detection reagent was added to each well, mixed thoroughly, and incubated at room temperature for 20 minutes to generate a stable fluorescent signal. The fluorescent signal was read using a fluorescence microplate reader, and the values were expressed as relative light units (RLU). The experiment was designed with duplicate wells, and the average value was used to calculate the enzyme activity inhibition rate using the following formula: Inh% = (Max-Signal) / (Max-Min)∗100 [formula] • where Max is the value detected at the maximum concentration of the sample, Min is the value detected at the minimum concentration of the sample, and Signal is the value detected at the current concentration of the sample. […] Table 1. Activity Data IC50 (nM)

Human recombinant MAO-A = target: T2, Human recombinant MAO-A (Homo sapiens, UniProt P21397); assay: Human recombinant MAO-A inhibitory activity assay (Promega MAO-Glo); format: biochemical; settings: human recombinant enzyme expressed in Sf 9 cells; substrate tyramine 40 µM; 15 min pre-incubation, 60 min reaction, room temperature; 10 concentrations, duplicate wells
T2 construct: Full-length human recombinant MAO-A and MAO-B proteins were both expressed in Baculovirus infected Sf 9 cells; FLAG (N); host or cells: Baculovirus-infected Sf9 insect cells
T2 sequence (P21397 1-527): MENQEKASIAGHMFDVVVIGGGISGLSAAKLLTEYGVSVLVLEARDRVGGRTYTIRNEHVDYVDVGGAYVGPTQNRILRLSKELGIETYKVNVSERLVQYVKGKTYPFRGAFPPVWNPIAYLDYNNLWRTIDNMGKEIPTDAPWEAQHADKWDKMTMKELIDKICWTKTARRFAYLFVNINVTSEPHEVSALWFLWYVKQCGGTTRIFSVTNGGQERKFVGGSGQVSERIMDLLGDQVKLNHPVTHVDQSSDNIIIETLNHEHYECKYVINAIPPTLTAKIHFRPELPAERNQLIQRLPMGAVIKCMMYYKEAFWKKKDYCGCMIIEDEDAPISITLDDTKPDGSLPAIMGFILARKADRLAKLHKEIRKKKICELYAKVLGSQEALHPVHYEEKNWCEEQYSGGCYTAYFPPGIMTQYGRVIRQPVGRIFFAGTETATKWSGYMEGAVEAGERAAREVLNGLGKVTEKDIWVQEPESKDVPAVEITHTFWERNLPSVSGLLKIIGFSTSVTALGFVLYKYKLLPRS
Description: as §1, §2

Row | SMILES | IC50 (Human recombinant MAO-B) [nM] | IC50 (Human recombinant MAO-A) [nM]
1 | NC(=O)[C@@H]1CC[C@H](c2ccc(-c3ccc(OC(F)(F)F)cc3)cc2)N1 [Compound 3, hydrochloride] | 199 | > 10000
2 | NC(=O)[C@@H]1CC[C@H](c2ccc(-c3cccc(C(F)(F)F)c3)cc2)N1 [Compound 4, hydrochloride] | 477 | > 10000
3 | NC(=O)[C@@H]1CC[C@H](c2ccc(-c3ccc([N+](=O)[O-])cc3)cc2)N1 [Compound 12, hydrochloride] | 796 | 6320
4 | N#Cc1cc(-c2ccc(C(F)(F)F)cc2)ccc1[C@H]1CC[C@@H](C(N)=O)N1 [Compound 21, hydrochloride] | 1360 | > 10000
5 | CNC(=O)[C@@H]1CC[C@H](c2ccc(-c3ccc(C(F)(F)F)cc3)cc2)N1 [Compound 27, hydrochloride] | 7530 | > 10000
6 | NC(=O)[C@H]1CC[C@H](c2ccc(-c3ccc(C(F)(F)F)cc3)cc2)N1 [Compound 7, hydrochloride] | 147 | > 10000
7 | Cc1cc(-c2ccc(C(F)(F)F)cc2)ccc1[C@H]1CC[C@@H](C(N)=O)N1 [Compound 19, hydrochloride] | 891 | > 10000
8 | COc1cc(-c2ccc(C(F)(F)F)cc2)ccc1[C@H]1CC[C@@H](C(N)=O)N1 [Compound 20, hydrochloride] | 998 | > 10000
9 | NC(=O)[C@@H]1CC[C@H](c2c(F)cc(-c3ccc(C(F)(F)F)cc3)cc2F)N1 [Compound 24, hydrochloride] | 773 | > 10000
10 | N#Cc1cc([C@H]2CC[C@@H](C(N)=O)N2)ccc1-c1ccc(C(F)(F)F)cc1 [Compound 23, hydrochloride] | 2530 | 9830
11 | CN1[C@@H](c2ccc(-c3ccc(C(F)(F)F)cc3)cc2)CC[C@H]1C(N)=O [Compound 26] | 3670 | > 10000
12 | NC(=O)[C@@H]1CC[C@H](c2ccc(-c3ccc(C(F)(F)F)cc3)cc2)N1 [Compound 1, hydrochloride] | 83 | > 10000
13 | CN(C)C(=O)[C@@H]1CC[C@H](c2ccc(-c3ccc(C(F)(F)F)cc3)cc2)N1 [Compound 28, hydrochloride] | 1000 | > 10000
14 | CC1C[C@H](c2ccc(-c3ccc(C(F)(F)F)cc3)cc2)N[C@@H]1C(N)=O (some centres unmarked) [Compound 25, hydrochloride] | 1510 | > 10000
15 | NC(=O)[C@@H]1CC[C@H](c2cc(F)c(-c3ccc(C(F)(F)F)cc3)c(F)c2)N1 [Compound 22, hydrochloride] | 434 | > 10000
16 | NC(=O)[C@@H]1CC[C@H](c2ccc(-c3ccccc3C(F)(F)F)cc2)N1 [Compound 9, hydrochloride] | 890 | > 10000
17 | COC(=O)c1ccc(-c2ccc([C@H]3CC[C@@H](C(N)=O)N3)cc2)cc1 [Compound 15, hydrochloride] | 784 | > 10000
18 | CCN1[C@@H](c2ccc(-c3ccc(C(F)(F)F)cc3)cc2)CC[C@H]1C(N)=O [Compound 30] | 562 | > 10000
19 | NC(=O)[C@@H]1CC[C@H](c2ccc(-c3cccc(F)c3)cc2)N1 [Compound 5, hydrochloride] | 3050 | > 10000
20 | NC(=O)[C@@H]1CC[C@H](c2ccc(-c3ccccc3)cc2)N1 [Compound 16, hydrochloride] | 7530 | > 10000

The remaining lines, values ahead:

Row | IC50 (Human recombinant MAO-B) [nM] | IC50 (Human recombinant MAO-A) [nM] | SMILES
21 | 1510 | > 10000 | NC(=O)[C@@H]1CC[C@H](c2ccc(-c3ccc(F)cc3)cc2)N1 [Compound 2, hydrochloride]
22 | 991 | > 10000 | NC(=O)c1ccc(-c2ccc([C@H]3CC[C@@H](C(N)=O)N3)cc2)cc1 [Compound 14, hydrochloride]
23 | 1990 | > 10000 | COC(=O)[C@@H]1CC[C@H](c2ccc(-c3ccc(F)cc3)cc2)N1 [Compound 32, hydrochloride]
24 | 710 | 6330 | Cc1ccc(-c2ccc([C@H]3CC[C@@H](C(N)=O)N3)cc2)cc1 [Compound 17, (2S,5R)-5-[4-(4-methylphenyl)phenyl]-1H-pyrrole-2-carboxamide hydrochloride]
25 | 1340 | 9360 | N#Cc1ccc(-c2ccc([C@H]3CC[C@@H](C(N)=O)N3)cc2)cc1 [Compound 11, hydrochloride]
26 | 533 | > 10000 | O=C(O)[C@@H]1CC[C@H](c2ccc(-c3ccc(F)cc3)cc2)N1 [Compound 31, hydrochloride]
27 | 104 | > 10000 | NC(=O)[C@@H]1CC[C@@H](c2ccc(-c3ccc(C(F)(F)F)cc3)cc2)N1 [Compound 6, hydrochloride]
28 | 564 | 83300 | NC(=O)[C@@H]1CC[C@H](c2ccc(-c3ccc(Cl)cc3)cc2)N1 [Compound 10, hydrochloride]
29 | 562 | 9970 | NC(=O)[C@H]1CC[C@@H](c2ccc(-c3ccc(C(F)(F)F)cc3)cc2)N1 [Compound 8, hydrochloride]
30 | 1540 | > 10000 | NC(=O)[C@@H]1CC[C@H](c2ccc(-c3ccc(C(=O)O)cc3)cc2)N1 [Compound 13, hydrochloride]
31 | 3570 | 9110 | COc1ccc(-c2ccc([C@H]3CC[C@@H](C(N)=O)N3)cc2)cc1 [Compound 18, hydrochloride]
